Read-outs that look alike come from different tables or passages of the source.
How the values were obtained:
MV4-11 cells (FLT3-ITD) = experiment: Cell viability assay (72 h); details: Homo sapiens, MV4-11, 72 h, read-out: Cell viability IC50 (nM)
Experimental: Exponentially growing cell lines were plated into 96-well plates and incubated overnight at 37° C. […] Fluorescence was measured using a Wallac Victor microplate reader (PerkinElmer, Waltham, Mass.). […] Data are shown as mean (1 SD) from 3 separate experiments, each tested in triplicate.

LAMA CML leukemia cells = experiment: Cellular proliferation assay
[1] = tested on: MFE-296 endometrial cancer cell line; experiment: Combination cell growth assay (Chou and Talalay); type: cell-based; details: Homo sapiens, MFE-296, read-out: 1×EC50 concentration
[2] = tested on: Phospho-Erk1/2 in SNU16 cells; experiment: Western immunoblotting; details: Homo sapiens, SNU-16, read-out: Phospho-Erk1/2 IC50 (nM)
Text: Cells were lysed in either SDS buffer or Phospho-Safe™ buffer (Novagen, Gibbstown, N.J.) and protein lysates were immunoprecipitated overnight and/or immunoblotted with the indicated antibodies. Protein expression was quantified using Quantity One software (BioRad, Hercules, Calif.).

[3] = tested on: FGFR-2 mutant AN3CA endometrial tumor xenograft; experiment: AN3CA subcutaneous xenograft (Example 8); details: mouse, in vivo
Experimental: AN3CA cells were implanted into the right flank of nude mice. […] Mean tumor volumes (±SE; tumor volume=L×W^2×0.5) were calculated for each treatment group.

[4] = tested on: Ba/F3 cells expressing BCR-ABL^T315I; details: for Wells with outgrowth: 480 wells surveyed
Text: At confluency, cells in 24-well plates were collected by centrifugation. DNA was extracted from the cell pellets using a DNEasy Tissue kit (QIAGEN, Inc., Valencia, Calif.). The BCR-ABL kinase domain was amplified using primers B2A (5′ [sequence] 3′) and ABL4317R (5′[sequence] 3′), PCR products were bi-directionally sequenced by a commercial contractor (Agencourt Bioscience Corporation, Beverly, Mass.) using primers ABL3335F (5′[sequence] 3′) and ABL4275R (5′[sequence] 3′), and the chromatograms were analyzed for mutations using Mutation Surveyor software (SoftGenetics, State College, Pa.).

PI3Kα = PI3Kα (Homo sapiens, UniProt P42336); experiment: Kinase assay (RBC)
PI3Kα, sequence (P42336 765-1051 limits assumed): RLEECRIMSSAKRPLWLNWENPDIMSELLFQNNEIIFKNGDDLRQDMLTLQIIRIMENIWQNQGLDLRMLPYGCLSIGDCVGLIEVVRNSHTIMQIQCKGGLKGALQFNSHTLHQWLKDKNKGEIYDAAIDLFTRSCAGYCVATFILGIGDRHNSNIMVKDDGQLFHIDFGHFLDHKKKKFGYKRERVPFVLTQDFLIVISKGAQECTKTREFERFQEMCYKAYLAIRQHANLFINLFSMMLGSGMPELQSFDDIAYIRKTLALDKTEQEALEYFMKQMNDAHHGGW
PI3Kα, sequence (P27986 whole entry partner): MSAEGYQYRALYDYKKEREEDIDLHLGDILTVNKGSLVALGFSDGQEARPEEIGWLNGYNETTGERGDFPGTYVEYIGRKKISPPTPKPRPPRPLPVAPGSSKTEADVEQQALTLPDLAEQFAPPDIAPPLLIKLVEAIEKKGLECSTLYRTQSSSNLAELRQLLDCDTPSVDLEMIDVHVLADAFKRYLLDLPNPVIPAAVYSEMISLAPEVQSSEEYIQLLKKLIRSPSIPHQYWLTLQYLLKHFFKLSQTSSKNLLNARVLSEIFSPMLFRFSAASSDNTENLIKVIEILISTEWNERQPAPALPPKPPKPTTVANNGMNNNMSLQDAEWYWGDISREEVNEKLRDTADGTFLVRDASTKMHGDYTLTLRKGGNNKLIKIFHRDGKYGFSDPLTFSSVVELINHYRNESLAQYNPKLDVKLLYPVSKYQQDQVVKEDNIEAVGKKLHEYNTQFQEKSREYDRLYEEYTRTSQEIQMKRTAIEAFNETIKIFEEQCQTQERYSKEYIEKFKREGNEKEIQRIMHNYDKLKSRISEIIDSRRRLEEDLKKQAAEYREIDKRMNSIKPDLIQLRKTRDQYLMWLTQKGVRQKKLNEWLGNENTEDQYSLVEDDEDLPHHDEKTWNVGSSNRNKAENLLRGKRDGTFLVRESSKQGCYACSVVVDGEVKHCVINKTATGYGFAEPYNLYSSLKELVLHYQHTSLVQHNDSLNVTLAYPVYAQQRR

TRKB = TRKB (Homo sapiens, UniProt Q16620); experiment: Kinase assay (RBC)
TRKB, sequence (Q16620 538-807 limits assumed): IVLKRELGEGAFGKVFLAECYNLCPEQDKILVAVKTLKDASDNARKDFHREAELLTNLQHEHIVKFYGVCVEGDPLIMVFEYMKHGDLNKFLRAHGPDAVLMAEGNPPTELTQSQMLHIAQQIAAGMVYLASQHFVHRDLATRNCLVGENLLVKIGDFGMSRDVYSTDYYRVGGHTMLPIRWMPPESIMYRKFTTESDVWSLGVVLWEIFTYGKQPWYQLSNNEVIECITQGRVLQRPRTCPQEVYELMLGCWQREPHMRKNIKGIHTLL

**Q.** Which results are given for `Cc1ccc(C(=O)Nc2ccc(CN3CCN(C)CC3)c(C(F)(F)F)c2)cc1C#Cc1cnc2cccnn12` [Compound 1, 3-(imidazo[1,2-b]pyridazin-3-ylethynyl)-4-methyl-N-(4-((4-methylpiperazin-1-yl)-methyl)-3-(trifluoromethyl)phenyl)benzamide]?
**A.** IC50 (MV4-11 cells (FLT3-ITD)): 2 nM; IC50 (LAMA CML leukemia cells): 0.3 nM; EC50 [1]: 100 nM; IC50 [2]: 8 nM; inhibition of AN3CA tumor growth [3]: 49%; Occurrences (n), by specific compound mutation (with T315I) ([4]; 20 nM, 20 clones sequenced, T315I only): 20; Frequency among clones (%) ([4]; 20 nM, T315I only): 100.0%; Wells with outgrowth ([4]; 40 nM): 192; Frequency by residue (%) ([4]; 320 nM, E255): 100.0%; Occurrences (n), by residue ([4]; 320 nM, E255): 1; Wells with outgrowth ([4]; 640 nM): 0; IC50 (PI3Kα): > 1000 nM; IC50 (TRKB): 15.1 nM

— US20120316137A1, “Methods and Compositions for Treating Cancer” (priority 2009, published 2012)
